Data: patent publication US5858684A, “Method of screening calcium receptor-active molecules” (priority 1995, dated 1999)
Entries after “also recorded” stand apart in the source; their conditions may differ. Where two headings read alike, the source gives them in different places.

Legend:
[1] = serum ionized Ca2+ in 5/6 nephrectomized rats (secondary hyperparathyroidism model); format: in vivo, rat; details: 10 mg/kg i.p.; within 2 hours
Source text: An accepted and widely used animal model of secondary hyperparathyroidism arising from chronic renal failure is the 5/6 nephrectomized rat. Animals receiving such surgery become initially hypocalcemic and, to maintain serum Ca^2+ levels, there is a compensatory hyperplasia of the parathyro:Ld glands and elevated levels of circulating PTH. Male Spracue-Dawley rats (250 g) received a 5/6 nephrectomy and were allowed to recover for 2 weeks. At this time they were normocalcemic (due to elevated levels of serum PTH).

[2] = system: human parathyroid calcium receptor (HuPCaR 5.2) in HEK293 cells; test: intracellular calcium in HEK293 cells transfected with HuPCaR 5.2; format: cell-based; details: Ca2+ 10 mM; Mg2+ 20 mM
Procedure: Cells obtained from the pool of hygromycin selected HEK293 cells transfected with Cep4B containing the HuPCaR 5.2 insert were plated on collagen coated Aklar squares which had been placed into individual wells of 12-well tissue culture plates. Two to six days later, medium was removed and the cells washed with balanced salt solution and 1 ml of buffer containing 1 μM fura2-AM, 1 mM CaCl2 and 0.1% BSA and 1 mM CaCl2. Measurements of fluorescence in response to calcium receptor agonists were performed at 37° C. in a spectrofluorimeter using excitation and emission wavelengths of 340 and 510 nm, respectively. For signal calibration, Fmax was determined after addition of ionomycin (40 μM) and the apparent Fmin was determined by addition of 0.3M EGTA, 2.5M Tris-HCl; pH 10.

[3] = hypocalcemic response in thyroidectomized rats; format: in vivo, rat; details: 3 to 100 mg/kg p.o.
Source text: In subsequent studies, rats received a thyroidectomy (parathyroid glands intact). This surgical procedure effectively removed the C-cells secreting calcitonin and therefore enabled the relative contributions of PTH and calcitonin to the hypocalcemic effect of this compound to be determined. […] The only difference was that the rate of onset of the hypocalcemic response was somewhat delayed in thyroidectomized animals. […] Stimulatory effects of this compound on calcitonin secretion increases the rate of onset, but not the extent, of hypocalcemia.

[4] = serum calcitonin in a human; format: in vivo; details: single oral doses 20-400 mg
Source text: (§1) A range of single oral doses was used to assess safety, tolerance, and changes in primary hyperparathyroidism markers (e.g., plasma concentrations of parathyroid hormone and ionized serum calcium) and of serum calcitonin.

circulating PTH in rats = format: in vivo, rat
[5] = plasma calcitonin in rats; format: in vivo, rat; details: p.o.
[6] = serum ionized calcium in a human; format: in vivo; details: higher oral doses
Source text: as §1

[7] = system: increases in [Ca2+]i elicited by extracellular Ca2+ in bovine parathyroid cells; test: block of extracellular Ca2+-induced [Ca2+]i increase / Ca2+ influx in bovine parathyroid cells; format: cell-based; details: 30 μM
Procedure: The cells were then pelleted, resuspended in the same buffer, but lacking the ester, and incubated a further 15 minutes at 37° C. The cells were subsequently washed twice with PCB containing 0.5 mM CaCl2 and 0.5% BSA and maintained at room temperature (about 20° C.). Immediately before use, the cells were diluted five-fold with prewarmed 0.5 mM CaCl2 -PCB to obtain a final BSA concentration of 0.1%. The concentration of cells in the cuvette used for fluorescence recording was 1-2×10^6 /ml.
The fluorescence of indicator-loaded cells was measured at 37° C. in a spectrofluorimeter (Biomedical Instrumentation Group, University of Pennsylvania, Philadelphia, Pa.) equipped with a thermostated cuvette holder and magnetic stirrer using excitation and emission wavelengths of 340 and 510 nm, respectively. […] Leakage of dye is dependent on temperature and most occurs within the first 2 minutes after warming the cells in the cuvette. Dye leakage increases only very slowly thereafter. To correct the calibration for dye leakage, cells were placed in the cuvette and stirred at 37° C. for 2-3 minutes. The cell suspension was then removed, the cells pelleted, and the supernatant returned to a clean cuvette. […] This estimate was subtracted from the apparent Fmin.

net positive charge = format: physicochemical
[8] = system: PTH secretion from bovine parathyroid cells; test: PTH secretion from bovine parathyroid cells; format: cell-based; details: bovine parathyroid cells
Procedure: PTH secretion was measured by first suspending cells in PCB containing 0.5 mM CaCl2 and 0.1% BSA.

[9] = system: osteoclast calcium receptor; test: increase in [Ca2+]i in indo-1-loaded rat osteoclasts; format: cell-based
[10] = system: cyclic AMP formation in bovine parathyroid cells; format: cell-based
Procedure: Cells were incubated as above for PTH secretion studies and at the end of the incubation, a 0.15-ml sample was taken and transferred to 0.85 ml of hot (70° C.) water and heated at this temperature for 5-10 minutes. The tubes were subsequently frozen and thawed several times and the cellular debris sedimented by centrifugation. Portions of the supernatant were acetylated and cyclic AMP concentrations determined by radioimmunoassay.
Each value is the mean±SEM of three experiments.

COc1cccc([C@@H](C)NCCCc2ccccc2)c1 (single isomer, unassigned) [NPS R-467]
serum ionized Ca2+ as % of controls [1]: 83 % of controls
increase in intracellular calcium [2]: Robust increases

COc1cccc([C@@H](C)NCCCc2ccccc2Cl)c1 [NPS R-568, (R)-(+)-N-[3-(2-chlorophenyl)propyl]-amethyl-α-3-methoxybenzylamine]
hypocalcemic response in thyroidectomized vs sham-operated animals [3]: equal in magnitude to that produced in sham-operated animals
serum calcitonin in human [4]: no apparent change in serum calcitonin
circulating levels of PTH (circulating PTH in rats): decreases in the levels of serum PTH; also recorded: rapid, dose-dependent decrease
plasma calcitonin [5]: an increase in calcitonin
serum ionized calcium in human [6]: decrease in serum ionized calcium concentration

NC[C@@H]1O[C@H](O[C@H]2[C@@H](O)[C@H](O[C@@H]3[C@@H](O)[C@H](N)C[C@H](N)[C@H]3O[C@H]3O[C@H](CN)[C@@H](O)[C@H](O)[C@H]3N)O[C@@H]2CO)[C@H](N)[C@@H](O)[C@@H]1O [Neomycin]
effect on [Ca2+]i increases elicited by extracellular Ca2+ [7]: blocks transient, but does not block steady-state increases
Net (+) Charge (Table 1) (net positive charge): +6
net positive charge (net positive charge): +6
net positive charge (net positive charge; pH 7.3): +6
inhibition of PTH secretion [8]: inhibited PTH secretion to the same extent
block of [Ca2+]i response to 25 mM extracellular Ca2+ [9]: did not block the increase
increase in [Ca2+]i in osteoclasts [9]: failed to evoke any increase
increase in [Ca2+]i in osteoclasts, overall [9]: none of these caused any large increase
increase in [Ca2+]i in rat osteoclasts [9]: Neither
effect on basal [Ca2+]i and on extracellular Ca2+-elicited increase ([9]; 5 mM): without effect on basal
increase in [Ca2+]i in osteoclasts, overall ([9]; listed as neomycin B): fail to evoke increases
isoproterenol-induced cyclic AMP [10]: depressed isoproterenol-induced increases
